Experimental data reported in paper PMC12469358, “Synthesis of novel phenoxyacetohydrazide compounds and evaluation therapeutic potential exhibit as anti-inflammatory and anti-angiogenic” (PLOS One, 2025).
≈ marks a conversion by molar mass, not a printed value. Entries after “also recorded” stand apart in the source; their conditions may differ. Read-outs that look alike come from different tables or passages of the source.

What was measured:
[1] = system: human red blood cell (HRBC) membrane; test: Human red blood cell (HRBC) membrane stabilization assay; type: cell-based; conditions: for IC50: Homo sapiens, Erythrocyte
Description: The human red blood cell (HRBC) membrane stabilization method was employed to evaluate the anti-inflammatory activity of the compounds, as previously described. For test the in vitro anti-inflammatory activity of synthesized compounds (6e-h), blood samples were collected from healthy volunteers who had not taken NSAIDs for 14 days. The blood was mixed with an equal volume of sterilized Alsever’s solution, centrifuged at 3000 rpm, and the packed cells were washed with isotonic saline (0.9% w/v NaCl). A 10% cell suspension was then prepared using isotonic saline. The test compounds were dissolved in DMSO to prepare solutions at concentrations of 50, 100, 150, 200, and 250 μg/ml. For each concentration, a mixture containing 1 ml of phosphate buffer, 2 ml of hypotonic saline, and 0.5 ml of the HRBC suspension was prepared. The samples were incubated at 37°C for 30 minutes and centrifuged at 3000 rpm for 20 minutes. The hemoglobin content in the supernatant was determined spectrophotometrically at 560 nm. Indomethacin at the same concentrations (50–250 μg/ml) was used as the reference standard, and a control sample was prepared without the test compounds. The percentage hemolysis was calculated by considering the hemolysis in the control group as 100%. The percentage of HRBC membrane stabilization or protection was determined using the following formula:
percent protection=100−((OD of drug treated sample/OD of control) ×100).

[2] = system: rVEGF165-induced angiogenesis in chick chorioallantoic membrane (CAM); test: In vivo chorioallantoic membrane (CAM) assay; conditions: for H&E staining: neovascular structures and inflammatory infiltration: Fig 23 legend, H&E staining of in vivo CAM
Description: The in vivo CAM assay was performed according to the standard protocol. All the eggs were wiped with 75% alcohol prior to incubation. Then the fertilized eggs were incubated at 37°C with 60% relative humidity. On the 11th day of incubation, all the eggs divided into three treatment groups contain minimum 6 eggs as mentioned below.
• Group I – Normal [PBS (Phosphate buffer saline) (10 mM Sodium phosphate mono basic+ 1.8 mM Sodium phosphate dibasic+140 mM sodium chloride, pH 7.4) alone] • Group II – Control [1µg of rVEGF165 alone] • Group III – 5 µg of 6e + 1 µg of rVEGF165.
A rectangular window was made in the egg shell and Whatman filter paper (3 mm diameter) containing with or without compound 6e (5 µg) was placed on the CAM and the window were sealed using sterile vegetable wrap. Windows were opened after 48h, i.e., on 13th day of incubation, observed by two independent observers and measured for change in the Micro Vessel Density (MVD) in the area beneath the cover slip and photographed using Sony steady shot DSC-W610 camera.

[3] = system: rVEGF165-induced angiogenesis in CAM explants; test: Ex vivo CAM assay; type: in vivo, chick
[4] = system: alkali burn-induced corneal neovascularization (CNV); test: Alkali burn-induced corneal neovascularization; type: in vivo; conditions: alkali-burnt cornea
Description: Corneal neovascularization (CNV) was induced through alkali injury following a standard protocol with minor modifications. Swiss albino rats were first examined to ensure the absence of ophthalmic diseases before the alkali burn procedure. The animals were divided into three groups, each comprising six animals (n = 6 per group):
• Group I: Normal, treated with phosphate-buffered saline (PBS). • Group II: Control group, treated with 1 µg of recombinant VEGF (rVEGF). • Group III: Treated group, receiving rVEGF165 ([…]) and compound 6e (5 µg/ml).
An alkali burn was induced in the right eye of animals in Groups II and III after administering general anesthesia via intraperitoneal injection of ketamine (1 ml/kg) and chlorpromazine (1 ml/kg). A 3-mm diameter piece of Whatman filter paper soaked in […] of 1 mol/L NaOH was applied to the center of the cornea for 30 seconds, followed by irrigation of the treated cornea with 60 ml of normal saline.
Group II animals were subsequently treated with 1 µg of rVEGF applied to the right eye. The extent of CNV was quantified through photographic documentation 48 hours after the alkali burn and rVEGF treatment. […] The inhibitory effect of compound 6e on neovascularization was evaluated through photographic documentation 24 hours after treatment with compound 6e.

[5] = system: carrageenan-induced paw edema; test: Carrageenan-induced paw edema; type: in vivo; conditions: rat, 6e 25 mg/kg, 5 h after carrageenan injection
Source text: Female Swiss albino rats were selected for the study to evaluate the anti-inflammatory effects of compound 6e against carrageenan-induced paw edema. The animals were divided randomly into four groups, with each group consisting of six experimental animals (n = 6): • Group 1: Normal animals (untreated). • Group 2: Control group (saline-treated). • Group 3: Positive control group (indomethacin-treated). • Group 4: Animals treated with compound 6e. Prior to the experiment, animals in Group 2 were administered saline (5 mL/kg), animals in Group 3 received the positive control indomethacin (10 mg/kg), and animals in Group 4 were treated with compound 6e (25 mg/kg). All animals were left undisturbed in their respective cages for 2 hours.

[6] = system: tissue myeloperoxidase (MPO) activity in carrageenan-treated paws; test: Tissue myeloperoxidase (MPO) activity assay; type: in vivo; conditions: rat, 6e 25 mg/kg, 4 hours after carrageenan
Description: Rats were treated either with or without positive control (indomethacin at 10 mg/kg body weight) or compound 6e (25 mg/kg body weight) 2 hours prior to the injection of carrageenan into the right hind paw. The activity of tissue myeloperoxidase (MPO) was assessed 4 hours post-carrageenan injection. Tissue samples were collected and placed in 0.75 ml of 80 mM phosphate-buffered saline (PBS, pH 5.4) containing 0.5% hexadecyltrimethylammonium bromide (HTAB). The samples were homogenized for 45 seconds at 0°C using a homogenizer. The homogenate was transferred into microfuge tubes, and the homogenizer vessel was rinsed with an additional 0.75 ml of HTAB in PBS. The wash was combined with the homogenate to yield a total sample volume of 1.5 ml, which was then centrifuged at 12,000 × g at 4°C for 15 minutes. For the MPO assay, 30 μl of the resulting supernatant was added to 96-well microtiter plates. To each well, 200 μl of a reaction mixture was added, consisting of 100 μl of 80 mM PBS (pH 5.4), 85 μl of 0.22 M PBS (pH 5.4), and 15 μl of 0.017% hydrogen peroxide. […] Enzyme activity was determined spectrophotometrically by measuring absorbance at 630 nm using a plate reader. Results were expressed as MPO activity per milligram of tissue (MOD/mg tissue). […] All samples were measured in six times (n = 6 technical replicates) for statistical accuracy.

[7] = Table 6 series 6a-h, read-out: HRBC membrane stabilization “IC50” Value
[8] = Table 7, 50-250 µg concentration series, comparison with indomethacin, read-out: “IC50”
[9] = Table 7, 50-250 µg concentration series, comparison with indomethacin

With `O=C(COc1ccc(Cl)cc1)NNC(=O)C1CN(Cc2ccccc2)CCO1` (centres unmarked) [6a, 4-Benzyl-N’-(2-(4-chlorophenoxy)acetyl)morpholine-2-carbohydrazide] as the molecule, how does the IC50 [1, 7] read?
The IC50 was 311 µg/mL (≈ 770 µM).

For `O=C(COc1ccc(Br)cc1)NNC(=O)C1CN(Cc2ccccc2)CCO1` (centres unmarked) [6b, 4-Benzyl-N’-(2-(4-bromophenoxy)acetyl)morpholine-2-carbohydrazide], which IC50 [1, 7] is on record?
Its IC50 is 222 µg/mL (≈ 495 µM).

With `Cc1ccccc1OCC(=O)NNC(=O)C1CN(Cc2ccccc2)CCO1` (centres unmarked) [6c, 4-Benzyl-N’-(2-(o-tolyloxy)acetyl)morpholine-2-carbohydrazide] as the molecule, how does the IC50 [1, 7] read?
The IC50 was 289 µg/mL (≈ 754 µM).

`Cc1ccc(OCC(=O)NNC(=O)C2CN(Cc3ccccc3)CCO2)c(C)c1` (centres unmarked) [6d, 4-Benzyl-N’-(2-(2,4-dimethylphenoxy)acetyl)morpholine-2-carbohydrazide] was tested. Which IC50 [1, 7] did it give?
Its IC50 is 199 µg/mL (≈ 501 µM).

Which “% Inhibition” value ([1]; 50 µg) does the source give for `O=C(CCCOc1ccc(F)cc1)NNC(=O)C1CN(Cc2ccccc2)CCO1` (centres unmarked) [6e, 4-Benzyl-N’-(4-(4-fluorophenoxy)butanoyl)morpholine-2-carbohydrazide] here?
Its value is 28.88%.

What about the “% Inhibition” value ([1]; 100 µg) of the same molecule?
Its value is 34.13%.

And the “% Inhibition” value ([1]; 150 µg)?
Its value is 42.02%.

And the “% Inhibition” value ([1]; 200 µg)?
The value was 59.99%.

And the “% Inhibition” value ([1]; 250 µg)?
Its value is 67.86%.

What about the IC50 [1, 7] of the same molecule?
Its IC50 is 155 µg/mL (≈ 373 µM).

And the IC50 [1, 8]?
Its IC50 is 164 µg/mL (≈ 395 µM).

And the ““IC50”” value [1, 9]?
Its value is 165.988 µg/mL.

What about the “rVEGF165-induced angiogenic response / neovascularization, in vivo CAM” value ([2]; 5 µg 6e + 1 µg rVEGF165, 48 h) of the same molecule?
The value was “inhibited this rVEGF165-induced angiogenic response in a dose-dependent manner; also recorded: Marked suppression of neovascularization”.

What about the “H&E staining: neovascular structures and inflammatory infiltration” value [2] of the same molecule?
Its value is “minimal inflammatory infiltration and absence of neovessel”.

And the “Total vessel length of in vivo CAM” value ([2]; versus control, n = 6)?
Its value is “A significant reduction in vessel length”.

And the “VEGF-induced angiogenic response, ex vivo CAM” value ([3]; co-administration with rVEGF165)?
The value was “Marked suppression of new blood vessel formation; also recorded: effectively inhibited this VEGF-induced angiogenic response in a dose-dependent manner”.

And the “Total vessel length of ex-vivo CAM” value ([3]; rVEGF165-induced increase, n = 6)?
The value was “significantly attenuated”.

And the “total vessel length in the rat cornea” value [4]?
The value was “diminution in the total vessel length; also recorded: reduction in total vessel length”.

What about the “corneal neovascularization (CNV)” value ([4]; rat, 6e 5 µg with rVEGF165 10 µg) of the same molecule?
Its value is “significant decrease in CNV”.

What about the “paw swelling ratio (percent increase of paw volume)” value [5] of the same molecule?
Its value is “statistically significant reduction in the paw swelling ratio; also recorded: significantly inhibited the ratio of paw swelling”.

What about the “MPO activity in carrageenan-treated paws” value [6] of the same molecule?
Its value is “markedly prevented the elevation of MPO activity”.

Which IC50 [1, 7] does the source give for `CC(C)c1ccc(OCC(=O)NNC(=O)C2CN(Cc3ccccc3)CCO2)c(C(C)C)c1` (centres unmarked) [6f, 4-Benzyl-N’-(2-(2,4-diisopropylphenoxy)acetyl)morpholine-2-carbohydrazide] here?
Its IC50 is 301 µg/mL (≈ 664 µM).

How did the IC50 [1, 7] turn out when `O=C(CCCOc1ccc(Br)cc1)NNC(=O)C1CN(Cc2ccccc2)CCO1` (centres unmarked) [6g, 4-Benzyl-N’-(4-(4-bromophenoxy)butanoyl)morpholine-2-carbohydrazide] was run?
The IC50 was 279 µg/mL (≈ 586 µM).

For `O=C(CCCOc1cccc([N+](=O)[O-])c1)NNC(=O)C1CN(Cc2ccccc2)CCO1` (centres unmarked) [6h, 4-Benzyl-N’-(4-(3-nitrophenoxy)butanoyl)morpholine-2-carbohydrazide], which IC50 [1, 7] is on record?
The IC50 was 255 µg/mL (≈ 576 µM).

What does the source list for `COc1ccc2c(c1)c(CC(=O)O)c(C)n2C(=O)c1ccc(Cl)cc1` [Indomethacin, reference compound]?
% Inhibition ([1]; 50 µg): 33.10%; % Inhibition ([1]; 100 µg): 46.11%; % Inhibition ([1]; 150 µg): 53.99%; % Inhibition ([1]; 200 µg): 64.98%; % Inhibition ([1]; 250 µg): 76.94%; IC50 [1, 8]: 122 µg/mL (≈ 340 µM); “IC50” [1, 9]: 122.01 µg/mL; H&E staining: neovascular structures and inflammatory infiltration [2]: Moderate reduction in neovascular structures
